Common to all, as to format: cell-based
Test [1] deals with IgE production by human B lymphocytes. The experiment in a line: IgE production by human B lymphocytes stimulated with anti-CD40 and IL-4, ELISA. Conditions: Anti CD-40 10 μg/ml + IL-4 10 ng/ml, 14 days; for IgE: single replicates. On the procedure: In the study, the effect of the extract has been assessed on the IgE production by purified human B lymphocytes (isolation of the CD19^+ lymphocytes from mononuclear cells of the peripheral blood). More specifically, the IgE production has been induced by the stimulation of the B lymphocytes with the combination of anti-CD40 antibody and of IL-4. After 14 days of incubation, the amount of IgE released in the culture supernatants has been quantified using a specific ELISA kit. Concomitantly with the tested extract, 3 other molecules have also been assessed in this test. the reference standard CpG-ODN 2006 (a TLR9 ligand), as well as IFN-γ and PGE2 have been tested as reference compounds.
The B lymphocytes CD19^+ have been isolated, sown in 24-well plates and incubated over one night in the culture medium. Afterwards, the compounds to be tested, tested alone or in combination, and the reference compounds have been added, or not (controls), and the cells have been pre-incubated for 2 hours. Afterwards, the inducer (a CD40+IL-4 combination) has been added, or not (unstimulated control) and the treatments with the test or the reference compounds have been repeated. Afterwards, the cells have been incubated for 14 days at a final density of 1.7×10^6 cells/ml). […]
The amount of IgE released in the culture supernatants has been measured using a specific ELISA kit according to the instructions of the supplier.

The next test addresses T1, hTLR2 (Homo sapiens, UniProt O60603).
T1 construct: host or cells: HEK-293
Kind of test: TLR reporter (SEAP/NFkB) test on HEK293 cell line with hTLR2. The method, then: (§1) The extract and the controls are tested in duplicate on recombinant HEK-293 cell lines. These cell lines functionally over-express human TLR proteins as well as a reporter gene that is a secreted alkaline phosphatase (SEAP). The production of this reporter gene is governed by an NFkB inducible promoter. The results of activation of the TLR reporters are given in the form of optical density (OD) values.
(§2) CU-T12-9 and FSL-1 are used on the cells expressing hTLR2 to respectively assess the TLR1/TLR2 and TLR2/TLR6 activities.
(§3) […] CU-T12-9 is tested at 200 nM and 300 nM.
(§4) 20 μl of the extract have been used to stimulate the reporter hTLR cell line in 200 μl of reaction volume. For the dose-response on the HEK-Blue-hTLR5 cell lines, the liquid extract obtained according to Example 1 has been tested in duplicate, at the following concentrations: 1000 μg/ml, 500 μg/ml, 250 μg/ml, 125 μg/ml, 62.5 μg/ml, 31.5 μg/ml. For the TLR1/2 and/or TLR2/6 specificity, the liquid extract obtained according to Example 1 has been tested in duplicate at the following concentrations: 100 μg/ml, 30 μg/ml and 10 μg/ml.

In the next test the target is T2, hTLR2-1 (Homo sapiens, UniProt O60603+Q15399).
T2 construct: host or cells: HEK-293
The experiment in a line: TLR reporter (SEAP/NFkB) test on HEK293 cell line with hTLR2-1. The method, then: as §1, §2, §3
20 μl of the extract have been used to stimulate the reporter hTLR cell line in 200 μl of reaction volume. For the dose-response on the HEK-Blue-hTLR5 cell lines, the liquid extract obtained according to Example 1 has been tested in duplicate, at the following concentrations: 1000 μg/ml, 500 μg/ml, 250 μg/ml, 125 μg/ml, 62.5 μg/ml, 31.5 μg/ml. […]

A further test deals with T3, hTLR2-6 (Homo sapiens, UniProt O60603+Q9Y2C9).
T3 construct: host or cells: HEK-293
The experiment in a line: TLR reporter (SEAP/NFkB) test on HEK293 cell line with hTLR2-6. The method, then:
as §1, §2, §3, §4

The test system of a further test is Zonula Occludens-1. Kind of test: Gene expression by RT-qPCR in normal human epidermal keratinocytes, Zonula Occludens-1. The following applies: NHEK, 24 hours; 1.00E−07 M, DMSO. The method, then: (§5) Normal human epidermal keratinocytes (NHEK) have been sown in 48-well culture plates and then cultured in a culture medium for 3 days at 37° C. and 5% of CO2 with a renewal of the culture medium after first 24 hours of culture. At the end of the incubation, the culture medium has been replaced with a test medium (supplemented with 1.5 mM of CaCl2)) containing no (control) or containing the compounds to be tested, and the cells has then been incubated for 24 hours. All conditions have been carried out in duplicate. At the end of the treatments, the culture media have been eliminated and the cells have been rinsed twice with PBS (without CaCl2, without MgCl2). Afterwards, the total RNA has been isolated using an extraction kit. The quantification of RNA and its quality control have been analyzed by means of Labchip GX (Perkin Elmer). The expression of the selected transcripts has been analyzed by quantitative PCR in two steps. First of all, the cDNAs have been transcribed in the opposite direction from the RNAs. Afterwards, the quantitative PCR experiments have been carried out using a real-time PCR system. […] The RNAs are extracted, quantified and their quality is checked before performing their reverse transcription into cDNA. Finally, an RT-qPCR is carried out for each experimental condition in order to quantify the expression of the set of selected genes.
On the technique in general: Quantitative PCR measures a nucleic acid by following its amplification.

The subject of a further test is Claudin 1. Kind of test: Gene expression by RT-qPCR in normal human epidermal keratinocytes, Claudin 1. Conditions: NHEK, 24 hours; 1.00E−07 M, DMSO. The method, then: as §5
A further test concerns Cornifelin. Kind of test: Gene expression by RT-qPCR in normal human epidermal keratinocytes, Cornifelin. The following applies: NHEK, 24 hours; 1.00E−07 M, DMSO. The method, then:
as §5

Several values for one entry are separate records, joined by “and”; a condition that tells them apart may be missing. Equal entries are not always repeated. Bounds are passed on as bounds.

T2 sequence (O60603 21-784): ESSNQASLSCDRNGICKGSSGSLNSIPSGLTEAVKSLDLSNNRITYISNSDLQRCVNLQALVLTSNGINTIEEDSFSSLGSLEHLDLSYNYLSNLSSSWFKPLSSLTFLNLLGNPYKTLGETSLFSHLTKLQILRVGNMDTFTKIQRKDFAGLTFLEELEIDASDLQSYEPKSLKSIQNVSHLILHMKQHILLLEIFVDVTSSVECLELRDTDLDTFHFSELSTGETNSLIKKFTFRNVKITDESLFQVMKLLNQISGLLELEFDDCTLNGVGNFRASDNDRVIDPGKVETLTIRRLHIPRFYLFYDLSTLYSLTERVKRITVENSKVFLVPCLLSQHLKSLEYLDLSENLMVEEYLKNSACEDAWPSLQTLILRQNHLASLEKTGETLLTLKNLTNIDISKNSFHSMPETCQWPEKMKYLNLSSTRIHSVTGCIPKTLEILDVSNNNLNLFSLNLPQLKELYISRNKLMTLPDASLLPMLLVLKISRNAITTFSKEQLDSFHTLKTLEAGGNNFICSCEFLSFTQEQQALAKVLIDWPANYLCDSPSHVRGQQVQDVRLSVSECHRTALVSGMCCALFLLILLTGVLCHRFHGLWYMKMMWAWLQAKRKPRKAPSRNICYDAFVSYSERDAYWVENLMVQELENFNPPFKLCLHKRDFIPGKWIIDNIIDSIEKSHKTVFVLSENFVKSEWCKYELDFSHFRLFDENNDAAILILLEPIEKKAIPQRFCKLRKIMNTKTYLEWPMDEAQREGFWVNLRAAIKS
T2 sequence (Q15399 25-786): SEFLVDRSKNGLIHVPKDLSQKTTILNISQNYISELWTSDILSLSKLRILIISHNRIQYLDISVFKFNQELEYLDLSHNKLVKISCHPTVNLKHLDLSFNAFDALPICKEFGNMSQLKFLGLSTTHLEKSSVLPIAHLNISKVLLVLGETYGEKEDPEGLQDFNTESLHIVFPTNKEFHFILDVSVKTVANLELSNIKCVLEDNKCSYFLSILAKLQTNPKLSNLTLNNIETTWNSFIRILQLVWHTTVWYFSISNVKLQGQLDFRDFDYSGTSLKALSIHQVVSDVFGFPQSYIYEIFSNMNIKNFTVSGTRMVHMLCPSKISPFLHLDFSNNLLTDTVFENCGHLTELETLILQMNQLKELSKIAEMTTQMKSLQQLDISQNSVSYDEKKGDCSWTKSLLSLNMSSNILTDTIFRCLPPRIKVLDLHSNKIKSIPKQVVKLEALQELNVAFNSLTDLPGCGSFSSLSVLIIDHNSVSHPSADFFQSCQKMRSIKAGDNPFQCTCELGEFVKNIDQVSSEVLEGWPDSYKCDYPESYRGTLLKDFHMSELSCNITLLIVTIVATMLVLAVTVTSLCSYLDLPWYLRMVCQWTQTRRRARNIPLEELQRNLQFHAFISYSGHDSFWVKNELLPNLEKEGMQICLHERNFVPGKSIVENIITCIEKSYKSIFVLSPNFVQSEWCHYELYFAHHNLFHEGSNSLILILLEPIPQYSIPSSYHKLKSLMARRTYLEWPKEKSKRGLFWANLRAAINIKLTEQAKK
T1 sequence (O60603 21-784): as the sequence (O60603 21-784) above
T3 sequence (O60603 21-784): as above
T3 sequence (Q9Y2C9 32-796): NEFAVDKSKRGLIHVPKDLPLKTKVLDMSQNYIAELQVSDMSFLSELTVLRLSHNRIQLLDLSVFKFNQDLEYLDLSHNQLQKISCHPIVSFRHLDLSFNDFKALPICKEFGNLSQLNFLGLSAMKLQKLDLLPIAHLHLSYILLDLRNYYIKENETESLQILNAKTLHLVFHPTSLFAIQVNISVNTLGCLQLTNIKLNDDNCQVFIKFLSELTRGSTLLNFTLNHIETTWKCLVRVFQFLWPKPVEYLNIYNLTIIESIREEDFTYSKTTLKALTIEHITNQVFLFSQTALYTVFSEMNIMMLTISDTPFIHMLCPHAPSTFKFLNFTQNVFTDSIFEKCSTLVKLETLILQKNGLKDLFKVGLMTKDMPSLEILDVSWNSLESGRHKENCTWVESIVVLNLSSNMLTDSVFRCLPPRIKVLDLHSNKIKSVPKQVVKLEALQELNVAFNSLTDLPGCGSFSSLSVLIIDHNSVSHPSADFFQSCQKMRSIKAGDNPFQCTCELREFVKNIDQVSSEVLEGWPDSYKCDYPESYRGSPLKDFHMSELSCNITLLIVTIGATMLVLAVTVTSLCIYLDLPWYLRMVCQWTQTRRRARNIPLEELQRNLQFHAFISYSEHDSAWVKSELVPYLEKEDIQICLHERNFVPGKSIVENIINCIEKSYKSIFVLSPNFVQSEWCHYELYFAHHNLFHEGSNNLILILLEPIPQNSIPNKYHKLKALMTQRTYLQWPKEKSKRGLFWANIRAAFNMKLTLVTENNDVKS

For the molecule CpG-ODN 2006, in test [1] (3 μM), the “IgE % of the stimulated control” value was below 3%, the “IgE Mean” value is below 123 pg/mL and the IgE was below 123 pg/mL. For the same molecule, in test [1] (3 μM, listed as CpG-ODN2006), the “IgE % of the stimulated control” value is below 3%.

Regarding FSL1, the DO on hTLR2 (10 pg/ml) was determined as 1.727; on hTLR2 (30 pg/ml) it was 2.174; at hTLR2-1 (10 pg/ml), 0.027; on hTLR2-1 (30 pg/ml) it was 0.013; at hTLR2-6 (10 pg/ml) it was 1.373; on hTLR2-6 (30 pg/ml) it was 2.047.

On to `CCCCC[C@H](O)/C=C/[C@H]1[C@H](O)CC(=O)[C@@H]1C/C=C\CCCC(=O)O` [PGE2], for which, in test [1] (1 μM), the “IgE % of the stimulated control” value is reported as 58%; the “IgE Mean” value turned out to be 2126 pg/mL; the IgE is 2942 pg/mL and 1495 pg/mL and 1941 pg/mL.

Consider `CC1=C(/C=C/C(C)=C/C=C/C(C)=C/CO)C(C)(C)CCC1` [Retinol], for which the “Average expression of the genes, Zonula Occludens-1” value in the test with Zonula Occludens-1 stood at 1.61. The “Average expression of the genes, Claudin 1” value in the test with Claudin 1 came out at 0.63. For the same molecule, the “Average expression of the genes, Cornifelin” value in the test on Cornifelin is listed as 0.77.

Turning to `CNc1ccc([N+](=O)[O-])cc1-n1cnc(-c2ccc(C(F)(F)F)cc2)c1` [CUT12-9], the DO was determined as 3.066 on hTLR2 (200 nM); 3.227 on hTLR2 (300 nM); 1.474 on hTLR2-1 (200 nM); 1.667 on hTLR2-1 (300 nM); 0.029 at hTLR2-6 (200 nM); 0.024 at hTLR2-6 (300 nM).

On to “IFN-γ: reference compound, R&D Systems, ref. 285-IF-100/CF”, for which, in test [1] (10 ng/ml), the “IgE % of the stimulated control” value is 20%; the “IgE Mean” value stood at 738 pg/mL; the IgE was 1012 pg/mL and 166 pg/mL and 1036 pg/mL.

For the origin of these results see patent publication US20240024379A1, “EXTRACT OF BACTERIA OF THE GENUS SPHINGOMONAS” (L’OREAL, priority 2020, published 2024).
